Measurements from ChEMBL document CHEMBL2074161, “Substrate upregulation of the human small intestinal peptide transporter, hPepT1” (J Physiol, 1998).
Peptide text beside a SMILES is read from it.

Molecular target: T1, Solute carrier family 15 member 1 (Homo sapiens) (UniProt P46059)
T1 sequence (whole entry): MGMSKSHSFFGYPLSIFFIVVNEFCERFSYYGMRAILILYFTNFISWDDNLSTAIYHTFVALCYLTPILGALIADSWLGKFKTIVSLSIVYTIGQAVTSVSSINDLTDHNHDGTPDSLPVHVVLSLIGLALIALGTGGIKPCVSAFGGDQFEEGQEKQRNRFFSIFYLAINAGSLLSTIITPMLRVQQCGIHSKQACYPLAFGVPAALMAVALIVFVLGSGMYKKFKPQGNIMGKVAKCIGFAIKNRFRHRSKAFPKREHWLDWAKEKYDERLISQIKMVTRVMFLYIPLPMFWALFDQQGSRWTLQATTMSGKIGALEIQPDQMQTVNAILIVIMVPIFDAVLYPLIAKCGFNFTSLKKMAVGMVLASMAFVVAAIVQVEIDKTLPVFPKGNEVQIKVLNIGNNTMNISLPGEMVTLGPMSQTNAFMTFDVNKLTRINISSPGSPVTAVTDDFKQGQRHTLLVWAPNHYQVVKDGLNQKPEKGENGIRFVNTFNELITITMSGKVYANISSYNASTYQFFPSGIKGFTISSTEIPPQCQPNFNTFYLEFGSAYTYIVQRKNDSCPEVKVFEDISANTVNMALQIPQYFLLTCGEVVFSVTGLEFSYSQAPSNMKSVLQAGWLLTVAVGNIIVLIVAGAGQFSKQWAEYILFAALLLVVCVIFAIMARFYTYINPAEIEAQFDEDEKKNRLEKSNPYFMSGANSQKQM
Assay: TP_TRANSPORTER: upregulation of mRNA and protein in Caco-2 cells
Type: functional, cell-based

Activity: inducer [+]
SMILES: NCC(=O)N[C@@H](CCC(N)=O)C(=O)O (H-Gly-Gln-OH)
